How the values were obtained:
Assay type in all cases: cell-based
Details in all cases: compounds at 50 nM and 500 nM
[1] = target: T1, CK1α (Homo sapiens, UniProt P48729+Q96SW2); assay: Western blot degradation of CK1α in hPBMCs (24 h)
T1 construct: The supernatant was aspirated as the extracted total cell protein; endogenous in cells; host or cells: human peripheral blood mononuclear cells (hPBMCs)
How it was run: (§1)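 Immunoblot densitometry quantifies target loss in hPBMCs after a 24 h compound exposure (50 nM, 500 nM). Percent remaining is normalised band intensity; DC50 is the concentration giving half the DMSO-control band grayscale.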

[2] = target: T2, IKZF3 (Homo sapiens, UniProt Q96SW2+Q9UKT9); assay: Western blot degradation of IKZF3 in hPBMCs (24 h)
T2 construct: The supernatant was aspirated as the extracted total cell protein; endogenous in cells; host or cells: human peripheral blood mononuclear cells (hPBMCs)
How it was run: as §1

[3] = target: T3, WEE1 (Homo sapiens, UniProt P30291+Q96SW2); assay: Western blot degradation of WEE1 in hPBMCs (24 h)
T3 construct: The supernatant was aspirated as the extracted total cell protein; endogenous in cells; host or cells: human peripheral blood mononuclear cells (hPBMCs)
How it was run: as §1

[4] = target: T4, GSPT1 (Homo sapiens, UniProt P15170+Q96SW2); assay: Western blot degradation of GSPT1 in hPBMCs (24 h)
T4 construct: The supernatant was aspirated as the extracted total cell protein; endogenous in cells; host or cells: human peripheral blood mononuclear cells (hPBMCs)
How it was run: as §1

[5] = target: T5, IKZF2 (Homo sapiens, UniProt Q96SW2+Q9UKS7); assay: Western blot degradation of IKZF2 in hPBMCs (24 h)
T5 construct: The supernatant was aspirated as the extracted total cell protein; endogenous in cells; host or cells: human peripheral blood mononuclear cells (hPBMCs)
How it was run: as §1

[6] = target: T6, IKZF1 (Homo sapiens, UniProt Q13422+Q96SW2); assay: Western blot degradation of IKZF1 in hPBMCs (24 h)
T6 construct: The supernatant was aspirated as the extracted total cell protein; endogenous in cells; host or cells: human peripheral blood mononuclear cells (hPBMCs)
How it was run: as §1

T3 sequence (P30291 whole entry): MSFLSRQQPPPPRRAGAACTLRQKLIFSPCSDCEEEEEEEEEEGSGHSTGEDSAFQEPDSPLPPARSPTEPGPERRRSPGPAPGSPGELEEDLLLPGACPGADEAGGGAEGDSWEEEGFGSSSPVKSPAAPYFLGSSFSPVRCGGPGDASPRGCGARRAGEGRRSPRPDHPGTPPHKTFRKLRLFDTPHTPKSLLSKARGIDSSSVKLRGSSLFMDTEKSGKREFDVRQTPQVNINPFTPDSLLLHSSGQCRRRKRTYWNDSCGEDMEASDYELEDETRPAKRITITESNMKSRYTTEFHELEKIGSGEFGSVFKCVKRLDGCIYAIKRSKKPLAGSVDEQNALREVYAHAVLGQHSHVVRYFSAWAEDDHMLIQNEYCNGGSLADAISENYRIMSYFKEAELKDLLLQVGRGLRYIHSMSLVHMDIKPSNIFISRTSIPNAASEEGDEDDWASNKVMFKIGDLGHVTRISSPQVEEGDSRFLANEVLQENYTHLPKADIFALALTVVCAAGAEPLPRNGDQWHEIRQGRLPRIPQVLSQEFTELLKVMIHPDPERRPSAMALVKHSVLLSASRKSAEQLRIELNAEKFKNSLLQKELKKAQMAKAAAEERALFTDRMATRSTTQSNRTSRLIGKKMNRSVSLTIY
T3 sequence (Q96SW2 whole entry): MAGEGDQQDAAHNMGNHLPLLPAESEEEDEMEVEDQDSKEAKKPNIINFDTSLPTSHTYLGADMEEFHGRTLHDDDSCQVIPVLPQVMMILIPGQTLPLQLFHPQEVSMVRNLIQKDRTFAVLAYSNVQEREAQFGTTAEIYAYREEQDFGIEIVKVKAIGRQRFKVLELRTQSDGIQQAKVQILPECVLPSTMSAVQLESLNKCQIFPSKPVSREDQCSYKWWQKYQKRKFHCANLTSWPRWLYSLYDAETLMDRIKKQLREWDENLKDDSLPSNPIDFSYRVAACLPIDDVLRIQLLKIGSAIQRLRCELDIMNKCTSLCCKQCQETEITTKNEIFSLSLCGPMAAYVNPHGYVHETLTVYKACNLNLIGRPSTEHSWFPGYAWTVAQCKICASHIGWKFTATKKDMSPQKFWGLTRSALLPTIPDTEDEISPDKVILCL
T3 sequence (Q16531 whole entry partner): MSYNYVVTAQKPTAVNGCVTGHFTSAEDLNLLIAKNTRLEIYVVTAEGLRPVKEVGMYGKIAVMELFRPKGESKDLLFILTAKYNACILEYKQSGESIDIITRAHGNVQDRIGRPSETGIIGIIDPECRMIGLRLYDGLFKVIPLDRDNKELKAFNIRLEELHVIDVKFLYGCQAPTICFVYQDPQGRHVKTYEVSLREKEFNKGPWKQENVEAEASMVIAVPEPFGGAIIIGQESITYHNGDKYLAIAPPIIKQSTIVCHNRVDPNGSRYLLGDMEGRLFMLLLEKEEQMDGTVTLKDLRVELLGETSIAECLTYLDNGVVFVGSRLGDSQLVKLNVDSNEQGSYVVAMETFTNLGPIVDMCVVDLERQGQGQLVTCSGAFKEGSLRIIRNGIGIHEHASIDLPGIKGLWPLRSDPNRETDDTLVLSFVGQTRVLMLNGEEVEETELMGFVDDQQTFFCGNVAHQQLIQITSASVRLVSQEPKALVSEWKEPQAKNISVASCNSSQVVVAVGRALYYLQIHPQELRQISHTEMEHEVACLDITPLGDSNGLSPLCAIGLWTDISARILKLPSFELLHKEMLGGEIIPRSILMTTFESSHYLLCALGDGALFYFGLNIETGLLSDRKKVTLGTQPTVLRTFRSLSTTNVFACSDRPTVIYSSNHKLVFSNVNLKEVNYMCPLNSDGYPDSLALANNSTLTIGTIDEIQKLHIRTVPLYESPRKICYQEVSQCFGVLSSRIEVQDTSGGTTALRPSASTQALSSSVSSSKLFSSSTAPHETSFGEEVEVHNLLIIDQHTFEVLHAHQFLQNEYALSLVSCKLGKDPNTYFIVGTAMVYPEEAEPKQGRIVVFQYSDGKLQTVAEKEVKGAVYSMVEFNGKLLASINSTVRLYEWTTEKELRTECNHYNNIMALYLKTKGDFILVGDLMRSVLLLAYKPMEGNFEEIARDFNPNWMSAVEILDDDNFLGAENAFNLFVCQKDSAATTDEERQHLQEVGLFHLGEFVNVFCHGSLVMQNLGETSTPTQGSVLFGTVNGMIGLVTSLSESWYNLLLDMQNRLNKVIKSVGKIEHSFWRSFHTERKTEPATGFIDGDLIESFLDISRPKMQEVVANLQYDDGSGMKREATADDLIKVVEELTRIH
T4 sequence (P15170 whole entry): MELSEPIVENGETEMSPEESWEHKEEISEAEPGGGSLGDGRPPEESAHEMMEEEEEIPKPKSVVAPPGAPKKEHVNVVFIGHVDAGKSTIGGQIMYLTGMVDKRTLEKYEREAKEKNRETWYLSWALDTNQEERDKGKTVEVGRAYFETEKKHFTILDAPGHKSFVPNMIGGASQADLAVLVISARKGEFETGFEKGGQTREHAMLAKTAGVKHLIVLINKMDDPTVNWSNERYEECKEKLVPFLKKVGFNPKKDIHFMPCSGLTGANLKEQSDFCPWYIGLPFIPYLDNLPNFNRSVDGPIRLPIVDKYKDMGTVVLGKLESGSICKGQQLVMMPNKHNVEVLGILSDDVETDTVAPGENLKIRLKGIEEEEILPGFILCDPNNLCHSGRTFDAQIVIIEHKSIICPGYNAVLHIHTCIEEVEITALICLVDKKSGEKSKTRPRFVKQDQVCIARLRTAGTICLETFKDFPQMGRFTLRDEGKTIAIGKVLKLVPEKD
T4 sequence (Q96SW2 whole entry): as the sequence (Q96SW2 whole entry) above
T4 sequence (Q16531 whole entry partner): as the sequence (Q16531 whole entry partner) above
T1 sequence (P48729 whole entry): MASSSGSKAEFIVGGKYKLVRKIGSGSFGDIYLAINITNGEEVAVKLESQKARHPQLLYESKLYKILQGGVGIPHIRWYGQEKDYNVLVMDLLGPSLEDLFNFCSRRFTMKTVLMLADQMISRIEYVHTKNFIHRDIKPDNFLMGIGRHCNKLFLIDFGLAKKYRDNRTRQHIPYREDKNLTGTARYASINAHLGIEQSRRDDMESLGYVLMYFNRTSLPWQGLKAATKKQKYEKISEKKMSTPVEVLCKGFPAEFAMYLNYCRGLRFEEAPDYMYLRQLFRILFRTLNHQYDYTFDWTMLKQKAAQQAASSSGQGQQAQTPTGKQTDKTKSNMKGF
T1 sequence (Q96SW2 whole entry): as the sequence (Q96SW2 whole entry) above
T1 sequence (Q16531 whole entry partner): as the sequence (Q16531 whole entry partner) above
T5 sequence (Q9UKS7 whole entry): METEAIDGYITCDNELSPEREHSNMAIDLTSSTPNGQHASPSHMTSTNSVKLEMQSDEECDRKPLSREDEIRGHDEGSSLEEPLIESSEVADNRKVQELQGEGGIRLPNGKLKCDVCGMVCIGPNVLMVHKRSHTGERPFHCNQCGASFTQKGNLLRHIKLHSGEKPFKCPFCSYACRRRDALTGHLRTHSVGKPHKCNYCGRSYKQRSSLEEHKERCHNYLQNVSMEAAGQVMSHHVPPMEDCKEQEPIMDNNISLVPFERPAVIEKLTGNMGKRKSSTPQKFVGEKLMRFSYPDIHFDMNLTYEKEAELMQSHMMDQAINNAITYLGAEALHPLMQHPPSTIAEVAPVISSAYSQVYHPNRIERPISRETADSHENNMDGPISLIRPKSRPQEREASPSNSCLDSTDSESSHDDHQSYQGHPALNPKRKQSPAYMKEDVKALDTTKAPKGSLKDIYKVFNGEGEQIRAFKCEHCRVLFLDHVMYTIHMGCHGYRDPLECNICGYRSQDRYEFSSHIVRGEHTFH
T5 sequence (Q96SW2 whole entry): as the sequence (Q96SW2 whole entry) above
T5 sequence (Q16531 whole entry partner): as the sequence (Q16531 whole entry partner) above
T2 sequence (Q9UKT9 whole entry): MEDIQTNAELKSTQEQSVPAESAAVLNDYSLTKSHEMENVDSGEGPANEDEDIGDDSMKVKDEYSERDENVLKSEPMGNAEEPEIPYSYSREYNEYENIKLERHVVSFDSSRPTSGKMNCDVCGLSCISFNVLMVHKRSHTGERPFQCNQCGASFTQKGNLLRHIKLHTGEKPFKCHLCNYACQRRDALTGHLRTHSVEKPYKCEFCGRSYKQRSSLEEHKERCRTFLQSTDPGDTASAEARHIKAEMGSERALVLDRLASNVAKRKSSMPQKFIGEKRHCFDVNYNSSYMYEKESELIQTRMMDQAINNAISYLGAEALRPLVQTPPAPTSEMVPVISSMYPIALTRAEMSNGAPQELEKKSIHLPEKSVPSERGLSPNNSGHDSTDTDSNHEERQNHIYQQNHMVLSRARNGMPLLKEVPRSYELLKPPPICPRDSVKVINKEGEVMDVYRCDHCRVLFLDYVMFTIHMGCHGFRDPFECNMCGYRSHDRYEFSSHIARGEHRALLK
T2 sequence (Q96SW2 whole entry): as the sequence (Q96SW2 whole entry) above
T2 sequence (Q16531 whole entry partner): as the sequence (Q16531 whole entry partner) above

SMILES: O=C1CCN(N2C(=O)c3ccc(CN4CC5CC(C4)N5c4cccc(Cl)c4Cl)cc3C2=O)C(=O)N1 [GT-07434, 5-((6-(2,3-dichlorophenyl)-3,6-diazabicyclo[3.1.1]heptan-3-yl)methyl)-2-(2,4-dioxotetrahydropyrimidin-1(2H)-yl)isoindoline-1,3-dione]
- CK1α substrate protein remaining % [1]: A (0% ≤ substrate protein remaining % ≤80%)
- IKZF3 substrate protein remaining % [2]: B (80%< substrate protein remaining % ≤100%)
- WEE1 substrate protein remaining % [3]: B (80%< substrate protein remaining % ≤100%)
- GSPT1 substrate protein remaining % [4]: B (80%< substrate protein remaining % ≤100%)
- IKZF2 substrate protein remaining % [5]: B (80%< substrate protein remaining % ≤100%)
- IKZF1 substrate protein remaining % [6]: B (80%< substrate protein remaining % ≤100%)

SMILES: O=C1CCN(N2C(=O)c3ccc(CN4C[C@H]5C[C@@H]4CN5c4cccc(Cl)c4Cl)cc3C2=O)C(=O)N1 [GT-07435, 5-(((1R,4R)-5-(2,3-dichlorophenyl)-2,5-diazabicyclo[2.2.1]heptan-2-yl)methyl)-2-(2,4-dioxotetrahydropyrimidin-1(2H)-yl)isoindoline-1,3-dione]
- CK1α substrate protein remaining % [1]: A (0% ≤ substrate protein remaining % ≤80%)
- IKZF3 substrate protein remaining % [2]: B (80%< substrate protein remaining % ≤100%)
- WEE1 substrate protein remaining % [3]: B (80%< substrate protein remaining % ≤100%)
- GSPT1 substrate protein remaining % [4]: B (80%< substrate protein remaining % ≤100%)
- IKZF2 substrate protein remaining % [5]: B (80%< substrate protein remaining % ≤100%)
- IKZF1 substrate protein remaining % [6]: B (80%< substrate protein remaining % ≤100%)

SMILES: O=C1CCN(N2C(=O)c3ccc(CN4CC5CCC4CN5c4cccc(Cl)c4Cl)cc3C2=O)C(=O)N1 (stereo not drawn) [GT-07436, 5-((5-(2,3-dichlorophenyl)-2,5-diazabicyclo[2.2.2]octan-2-yl)methyl)-2-(2,4-dioxotetrahydropyrimidin-1(2H)-yl)isoindoline-1,3-dione]
- CK1α substrate protein remaining % [1]: A (0% ≤ substrate protein remaining % ≤80%)
- IKZF3 substrate protein remaining % [2]: B (80%< substrate protein remaining % ≤100%)
- WEE1 substrate protein remaining % [3]: B (80%< substrate protein remaining % ≤100%)
- GSPT1 substrate protein remaining % [4]: B (80%< substrate protein remaining % ≤100%)
- IKZF2 substrate protein remaining % [5]: A (0% ≤ substrate protein remaining % ≤80%)
- IKZF1 substrate protein remaining % [6]: B (80%< substrate protein remaining % ≤100%)

SMILES: O=C1CCN(N2C(=O)c3ccc(CN4CC5CCC(C4)N5c4cccc(Cl)c4Cl)cc3C2=O)C(=O)N1 [GT-07437, 5-((8-(2,3-dichlorophenyl)-3,8-diazabicyclo[3.2.1]octan-3-yl)methyl)-2-(2,4-dioxotetrahydropyrimidin-1(2H)-yl)isoindoline-1,3-dione]
- CK1α substrate protein remaining % [1]: A (0% ≤ substrate protein remaining % ≤80%)
- IKZF3 substrate protein remaining % [2]: B (80%< substrate protein remaining % ≤100%)
- WEE1 substrate protein remaining % [3]: A (0% ≤ substrate protein remaining % ≤80%)
- GSPT1 substrate protein remaining % [4]: A (0% ≤ substrate protein remaining % ≤80%)
- IKZF2 substrate protein remaining % [5]: B (80%< substrate protein remaining % ≤100%)
- IKZF1 substrate protein remaining % [6]: B (80%< substrate protein remaining % ≤100%)

SMILES: O=C1CCN(N2C(=O)c3ccc(CN4C5CCC4CN(c4cccc(Cl)c4Cl)C5)cc3C2=O)C(=O)N1 [GT-07438, 5-((3-(2,3-dichlorophenyl)-3,8-diazabicyclo[3.2.1]octan-8-yl)methyl)-2-(2,4-dioxotetrahydropyrimidin-1(2H)-yl)isoindoline-1,3-dione]
- CK1α substrate protein remaining % [1]: A (0% ≤ substrate protein remaining % ≤80%)
- IKZF3 substrate protein remaining % [2]: B (80%< substrate protein remaining % ≤100%)
- WEE1 substrate protein remaining % [3]: A (0% ≤ substrate protein remaining % ≤80%)
- GSPT1 substrate protein remaining % [4]: A (0% ≤ substrate protein remaining % ≤80%)
- IKZF2 substrate protein remaining % [5]: B (80%< substrate protein remaining % ≤100%)
- IKZF1 substrate protein remaining % [6]: B (80%< substrate protein remaining % ≤100%)

SMILES: O=C1CCN(N2C(=O)c3ccc(CN4CCCN(c5cccc(Cl)c5Cl)CC4)cc3C2=O)C(=O)N1 [GT-07439, 5-((4-(2,3-dichlorophenyl)-1,4-diazepan-1-yl)methyl)-2-(2,4-dioxotetrahydropyrimidin-1(2H)-yl)isoindoline-1,3-dione]
- CK1α substrate protein remaining % [1]: A (0% ≤ substrate protein remaining % ≤80%)
- IKZF3 substrate protein remaining % [2]: B (80%< substrate protein remaining % ≤100%)
- WEE1 substrate protein remaining % [3]: B (80%< substrate protein remaining % ≤100%)
- GSPT1 substrate protein remaining % [4]: A (0% ≤ substrate protein remaining % ≤80%)
- IKZF2 substrate protein remaining % [5]: B (80%< substrate protein remaining % ≤100%)
- IKZF1 substrate protein remaining % [6]: B (80%< substrate protein remaining % ≤100%)

SMILES: O=C1CCN(N2C(=O)c3ccc(CN4CC=C(c5ccnc(Cl)c5Cl)CC4)cc3C2=O)C(=O)N1 [GT-07440, 5-((2′,3′-dichloro-3,6-dihydro-[4,4′-bipyridin]-1(2H)-yl)methyl)-2-(2,4-dioxotetrahydropyrimidin-1(2H)-yl)isoindoline-1,3-dione]
- CK1α substrate protein remaining % [1]: A (0% ≤ substrate protein remaining % ≤80%)
- IKZF3 substrate protein remaining % [2]: B (80%< substrate protein remaining % ≤100%)
- WEE1 substrate protein remaining % [3]: A (0% ≤ substrate protein remaining % ≤80%)
- GSPT1 substrate protein remaining % [4]: A (0% ≤ substrate protein remaining % ≤80%)
- IKZF2 substrate protein remaining % [5]: B (80%< substrate protein remaining % ≤100%)
- IKZF1 substrate protein remaining % [6]: B (80%< substrate protein remaining % ≤100%)

SMILES: O=C1CCN(N2C(=O)c3ccc(CN4CC=C(c5ccoc5)CC4)cc3C2=O)C(=O)N1 [GT-07442, 2-(2,4-dioxotetrahydropyrimidin-1(2H)-yl)-5-((4-(furan-3-yl)-3,6-dihydropyridin-1(2H)-yl)methyl)isoindoline-1,3-dione]
- CK1α substrate protein remaining % [1]: B (80%< substrate protein remaining % ≤100%)
- IKZF3 substrate protein remaining % [2]: A (0% ≤ substrate protein remaining % ≤80%)
- WEE1 substrate protein remaining % [3]: A (0% ≤ substrate protein remaining % ≤80%)
- GSPT1 substrate protein remaining % [4]: A (0% ≤ substrate protein remaining % ≤80%)
- IKZF2 substrate protein remaining % [5]: B (80%< substrate protein remaining % ≤100%)
- IKZF1 substrate protein remaining % [6]: B (80%< substrate protein remaining % ≤100%)

SMILES: O=C1CCN(N2C(=O)c3ccc(CN4CC=C(c5cncc(Cl)c5)CC4)cc3C2=O)C(=O)N1 [GT-07491, 5-((5-chloro-3′,6′-dihydro-[3,4′-bipyridin]-1′ (2′H)-yl)methyl)-2-(2,4-dioxotetrahydropyrimidin-1(2H)-yl)isoindoline-1,3-dione]
- CK1α substrate protein remaining % [1]: B (80%< substrate protein remaining % ≤100%)
- IKZF3 substrate protein remaining % [2]: B (80%< substrate protein remaining % ≤100%)
- WEE1 substrate protein remaining % [3]: A (0% ≤ substrate protein remaining % ≤80%)
- GSPT1 substrate protein remaining % [4]: A (0% ≤ substrate protein remaining % ≤80%)
- IKZF2 substrate protein remaining % [5]: B (80%< substrate protein remaining % ≤100%)
- IKZF1 substrate protein remaining % [6]: B (80%< substrate protein remaining % ≤100%)

SMILES: O=C1CCN(N2C(=O)c3ccc(CN4CC=C(c5ncccc5F)CC4)cc3C2=O)C(=O)N1 [GT-07492, 2-(2,4-dioxotetrahydropyrimidin-1(2H)-yl)-5-((3-fluoro-3′,6′-dihydro-[2,4′-bipyridin]-1′ (2′H)-yl)methyl)isoindoline-1,3-dione]
- CK1α substrate protein remaining % [1]: A (0% ≤ substrate protein remaining % ≤80%)
- IKZF3 substrate protein remaining % [2]: B (80%< substrate protein remaining % ≤100%)
- WEE1 substrate protein remaining % [3]: B (80%< substrate protein remaining % ≤100%)
- GSPT1 substrate protein remaining % [4]: B (80%< substrate protein remaining % ≤100%)
- IKZF2 substrate protein remaining % [5]: B (80%< substrate protein remaining % ≤100%)
- IKZF1 substrate protein remaining % [6]: B (80%< substrate protein remaining % ≤100%)

SMILES: O=C1CCN(N2C(=O)c3ccc(CN4CCC(c5ccnc(F)c5F)CC4)cc3C2=O)C(=O)N1 [GT-07493, 5-((4-(2,3-difluoropyridin-4-yl)piperidin-1-yl)methyl)-2-(2,4-dioxotetrahydropyrimidin-1(2H)-yl)isoindoline-1,3-dione]
- CK1α substrate protein remaining % [1]: A (0% ≤ substrate protein remaining % ≤80%)
- IKZF3 substrate protein remaining % [2]: A (0% ≤ substrate protein remaining % ≤80%)
- WEE1 substrate protein remaining % [3]: B (80%< substrate protein remaining % ≤100%)
- GSPT1 substrate protein remaining % [4]: B (80%< substrate protein remaining % ≤100%)
- IKZF2 substrate protein remaining % [5]: B (80%< substrate protein remaining % ≤100%)
- IKZF1 substrate protein remaining % [6]: B (80%< substrate protein remaining % ≤100%)

SMILES: O=C1CCN(N2C(=O)c3ccc(CN4CC=C(c5ccnc(F)c5F)CC4)cc3C2=O)C(=O)N1 [GT-07494, 5-((2′,3′-difluoro-3,6-dihydro-[4,4′-bipyridin]-1(2H)-yl)methyl)-2-(2,4-dioxotetrahydropyrimidin-1(2H)-yl)isoindoline-1,3-dione]
- CK1α substrate protein remaining % [1]: A (0% ≤ substrate protein remaining % ≤80%)
- IKZF3 substrate protein remaining % [2]: B (80%< substrate protein remaining % ≤100%)
- WEE1 substrate protein remaining % [3]: A (0% ≤ substrate protein remaining % ≤80%)
- GSPT1 substrate protein remaining % [4]: B (80%< substrate protein remaining % ≤100%)
- IKZF2 substrate protein remaining % [5]: B (80%< substrate protein remaining % ≤100%)
- IKZF1 substrate protein remaining % [6]: B (80%< substrate protein remaining % ≤100%)

Reference: US20260356819A1, “OXOISOINDOLINYL-SUBSTITUTED […] DERIVATIVE AND USE THEREOF” (GLUETACS THERAPEUTICS (SHANGHAI) CO., LTD., priority 2023, published 2026)
